According to ChEMBL document CHEMBL1201862, “PubChem BioAssay data set” (2004):
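Test compounds were applied to cells in 96-well plates for 48 hours at 5 doses. Abbreviation: GI50, concentration required for 50% inhibition of growth.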 The source made the active and inactive calls. Rule as the data show it: active = GI50 up to about 1.1 µM and inactive = higher.

Legend:
Assay in all cases: NCI tumour cell line growth inhibition, 48 h
[1] = system: HOP-18
[2] = system: NCI/ADR-RES
[3] = system: DLD-1
[4] = system: HCT-15
[5] = system: MCF7
[6] = system: KM12
[7] = system: SNB-78
[8] = system: DMS-114
[9] = system: SF-268
[10] = system: SF-295
[11] = system: NCI-H23
[12] = system: Malme-3M
[13] = system: HOP-92
[14] = system: HT-29
[15] = system: SK-MEL-2
[16] = system: OVCAR-3
[17] = system: CAKI-1
[18] = system: OVCAR-4
[19] = system: U-251
[20] = system: OVCAR-5
[21] = system: K562
[22] = system: OVCAR-8
[23] = system: HCT-116
[24] = system: HOP-62
[25] = system: NCI-H522
[26] = system: SN12C
[27] = system: M19-MEL
[28] = system: KM-20L2
[29] = system: SNB-75
[30] = system: DMS-273
[31] = system: RPMI-8226
[32] = system: RXF 393
[33] = system: MOLT-4
[34] = system: XF498
[35] = system: LOX IMVI
[36] = system: SF-539
[37] = system: UO-31
[38] = system: IGROV-1
[39] = system: A498
[40] = system: SNB-19
[41] = system: EKVX
[42] = system: SK-OV-3
[43] = system: NCI-H460
[44] = system: COLO 205
[45] = system: UACC-257
[46] = system: UACC-62
[47] = system: HCC 2998
[48] = system: A549
[49] = system: SK-MEL-28
[50] = system: SK-MEL-5
[51] = system: NCI-H226
[52] = system: SW-620
[53] = system: HL-60
[54] = system: CCRF-CEM
[55] = system: 786-0
[56] = system: TK-10
[57] = system: ACHN
[58] = system: LXFL 529
[59] = system: M14

## O=C1NC(c2cccc3ccccc23)Nc2ccc(O)cc21 (stereo not drawn)
[1]
  GI50: 43.3 µM (inactive)
[2]
  GI50: 16 µM (inactive)
[3]
  GI50: 33.5 µM (inactive)
[4]
  GI50: 11 µM
[5]
  GI50: 16.1 µM (inactive)
[6]
  GI50: 23.4 µM (inactive)
[7]
  GI50: 40.3 µM (inactive)
[8]
  GI50: 7.35 µM (inactive)
[9]
  GI50: 35.6 µM (inactive)
[10]
  GI50: 27.5 µM (inactive)
[11]
  GI50: 34 µM (inactive)
[12]
  GI50: 24.4 µM (inactive)
[13]
  GI50: 35 µM (inactive)
[14]
  GI50: 40.5 µM (inactive)
[15]
  GI50: 20.4 µM (inactive)
[16]
  GI50: 24.5 µM (inactive)
[17]
  GI50: 30.5 µM (inactive)
[18]
  GI50: 1.1 µM (active)
[19]
  GI50: 38.8 µM (inactive)
[20]
  GI50: 32.6 µM (inactive)
[21]
  GI50: 8.57 µM (inactive)
[22]
  GI50: 36.9 µM (inactive)
[23]
  GI50: 32.1 µM (inactive)
[24]
  GI50: 31.8 µM (inactive)
[25]
  GI50: 22.3 µM (inactive)
[26]
  GI50: 39.9 µM (inactive)
[27]
  GI50: 28.6 µM (inactive)
[28]
  GI50: 40.3 µM (inactive)
[29]
  GI50: 38.6 µM (inactive)
[30]
  GI50: 10.4 µM (inactive)
[31]
  GI50: 24.2 µM (inactive)
[32]
  GI50: 31 µM (inactive)
[33]
  GI50: 9.48 µM (inactive)
[34]
  GI50: 24.7 µM (inactive)
[35]
  GI50: 16.2 µM (inactive)
[36]
  GI50: 33 µM (inactive)
[37]
  GI50: 30.2 µM (inactive)
[38]
  GI50: 35.1 µM (inactive)
[39]
  GI50: 23.9 µM (inactive)
[40]
  GI50: 58.1 µM (inactive)
[41]
  GI50: 42.3 µM (inactive)
[42]
  GI50: 41.1 µM (inactive)
[43]
  GI50: 28 µM (inactive)
[44]
  GI50: 34.1 µM (inactive)
[45]
  GI50: 23.4 µM (inactive)
[46]
  GI50: 21 µM (inactive)
[47]
  GI50: 27.2 µM (inactive)
[48]
  GI50: 33.4 µM (inactive)
[49]
  GI50: 47.1 µM (inactive)
[50]
  GI50: 23.8 µM (inactive)
[51]
  GI50: 19.5 µM (inactive)
[52]
  GI50: 17.6 µM (inactive)
[53]
  GI50: 6.14 µM (inactive)
[54]
  GI50: 20.2 µM (inactive)

## CCNC1C2(CCCCC2)NC(=O)C12CCCCC2 (stereo not drawn)
[3]
  GI50: > 100 µM (inactive)
[4]
  GI50: > 100 µM
[6]
  GI50: > 100 µM (inactive)
[7]
  GI50: > 100 µM (inactive)
[8]
  GI50: > 100 µM (inactive)
[55]
  GI50: > 100 µM (inactive)
[56]
  GI50: > 100 µM (inactive)
[57]
  GI50: > 100 µM (inactive)
[58]
  GI50: > 100 µM (inactive)
[10]
  GI50: > 100 µM (inactive)
[11]
  GI50: > 100 µM (inactive)
[12]
  GI50: > 100 µM (inactive)
[14]
  GI50: > 100 µM (inactive)
[15]
  GI50: > 100 µM (inactive)
[59]
  GI50: > 100 µM (inactive)
[16]
  GI50: > 100 µM (inactive)
[17]
  GI50: > 100 µM (inactive)
[18]
  GI50: > 100 µM (inactive)
[19]
  GI50: > 100 µM (inactive)
[20]
  GI50: > 100 µM (inactive)
[21]
  GI50: > 100 µM (inactive)
[22]
  GI50: > 100 µM (inactive)
[23]
  GI50: > 100 µM (inactive)
[24]
  GI50: > 100 µM (inactive)
[27]
  GI50: > 100 µM (inactive)
[28]
  GI50: > 100 µM (inactive)
[29]
  GI50: > 100 µM (inactive)
[30]
  GI50: > 100 µM (inactive)
[31]
  GI50: > 100 µM (inactive)
[32]
  GI50: > 100 µM (inactive)
[33]
  GI50: > 100 µM (inactive)
[34]
  GI50: > 100 µM (inactive)
[36]
  GI50: > 100 µM (inactive)
[37]
  GI50: > 100 µM (inactive)
[38]
  GI50: > 100 µM (inactive)
[39]
  GI50: > 100 µM (inactive)
[41]
  GI50: > 100 µM (inactive)
[42]
  GI50: > 100 µM (inactive)
[43]
  GI50: > 100 µM (inactive)
[45]
  GI50: > 100 µM (inactive)
[46]
  GI50: > 100 µM (inactive)
[47]
  GI50: > 100 µM (inactive)
[48]
  GI50: > 100 µM (inactive)
[49]
  GI50: > 100 µM (inactive)
[50]
  GI50: > 100 µM (inactive)
[51]
  GI50: > 100 µM (inactive)
[52]
  GI50: > 100 µM (inactive)
[53]
  GI50: > 100 µM (inactive)
[54]
  GI50: > 100 µM (inactive)

## CCN(CC)CC(=N)N(CC)c1ccccc1
[1]
  GI50: > 100 µM (inactive)
[3]
  GI50: > 100 µM (inactive)
[4]
  GI50: > 100 µM
[6]
  GI50: > 100 µM (inactive)
[7]
  GI50: > 100 µM (inactive)
[8]
  GI50: > 100 µM (inactive)
[55]
  GI50: > 100 µM (inactive)
[56]
  GI50: > 100 µM (inactive)
[57]
  GI50: > 100 µM (inactive)
[58]
  GI50: > 100 µM (inactive)
[9]
  GI50: > 100 µM (inactive)
[10]
  GI50: > 100 µM (inactive)
[11]
  GI50: > 100 µM (inactive)
[12]
  GI50: > 100 µM (inactive)
[13]
  GI50: > 100 µM (inactive)
[15]
  GI50: > 100 µM (inactive)
[59]
  GI50: > 100 µM (inactive)
[16]
  GI50: > 100 µM (inactive)
[17]
  GI50: > 100 µM (inactive)
[18]
  GI50: > 100 µM (inactive)
[19]
  GI50: > 100 µM (inactive)
[20]
  GI50: > 100 µM (inactive)
[21]
  GI50: > 100 µM (inactive)
[22]
  GI50: > 100 µM (inactive)
[23]
  GI50: > 100 µM (inactive)
[24]
  GI50: > 100 µM (inactive)
[25]
  GI50: > 100 µM (inactive)
[26]
  GI50: > 100 µM (inactive)
[27]
  GI50: > 100 µM (inactive)
[28]
  GI50: > 100 µM (inactive)
[29]
  GI50: 33.7 µM (inactive)
[31]
  GI50: > 100 µM (inactive)
[32]
  GI50: > 100 µM (inactive)
[33]
  GI50: > 100 µM (inactive)
[34]
  GI50: > 100 µM (inactive)
[35]
  GI50: > 100 µM (inactive)
[36]
  GI50: > 100 µM (inactive)
[37]
  GI50: > 100 µM (inactive)
[38]
  GI50: > 100 µM (inactive)
[39]
  GI50: > 100 µM (inactive)
[40]
  GI50: > 100 µM (inactive)
[41]
  GI50: > 100 µM (inactive)
[42]
  GI50: > 100 µM (inactive)
[43]
  GI50: > 100 µM (inactive)
[44]
  GI50: > 100 µM (inactive)
[45]
  GI50: 43.6 µM (inactive)
[46]
  GI50: > 100 µM (inactive)
[47]
  GI50: 93.3 µM (inactive)
[48]
  GI50: > 100 µM (inactive)
[49]
  GI50: > 100 µM (inactive)
[50]
  GI50: > 100 µM (inactive)
[51]
  GI50: > 100 µM (inactive)
[52]
  GI50: > 100 µM (inactive)
[53]
  GI50: > 100 µM (inactive)
[54]
  GI50: > 100 µM (inactive)
